Measurements: patent publication US11458155B1, “Active ingredient complexes, compositions and methods for hangover relief and to ameliorate alcohol-induced liver damage” (FULGENT LIFE INC., priority 2021, dated 2022)

Legend:
male C57BL/6J mice [1] = assay: Blood ethanol concentration after ethanol ingestion (headspace gas chromatography); assay type: in vivo; conditions: oral/intragastric 500 mg/kg (Example 1: 250 or 500 mg/kg) before 8 ml/kg ethanol (40% w/v); FIG. 1A
Method: Mice were randomly divided into a normal group (untreated group), a control group and a treatment group, with 8 mice in each group. […] The control group was given the same ethanol solution and corresponding distilled water, while the normal group was only given corresponding distilled water. At different time points of the experiment, the mice were anesthetized by intraperitoneal injection of 10% chloral hydrate (350 mg/kg body weight). Blood and liver tissues were extracted from each animal.
Eyeball blood samples (0.3 mL) were taken, each was put into an 8 mL headspace vial containing 1.2 mL 0.6 M perchloric acid, 0.5 mL trichloroacetic acid (10%) and 0.3 mL internal standard (160 mg/L tertiary butanol), and the concentrations of ethanol and acetaldehyde were determined with headspace gas chromatography.
Blood samples were collected from the infraorbital venous plexus at different time points (as indicated) after the ethanol administration. Blood ethanol (FIG. 1A) and acetaldehyde (FIG. 1B) levels were determined. Each group contained 6-8 mice. Data are presented as the mean±SD.

mice [2] = conditions: cited from earlier work
rats = conditions: cited from earlier work
[3] = cited from earlier work
[4] = after oral administration; cited from earlier work
glutamate receptors = conditions: not as great as that of L-glutamic acid; cited from earlier work
mice [5] = conditions: intraperitoneal injection of theanine, oral administration of ethanol; cited from earlier work
male C57BL/6J mice [6] = assay: Liver MDA and SOD, oxidative damage caused by acute alcohol ingestion; assay type: in vivo; conditions: 500 mg/kg intragastric 15 min prior to 8 ml/kg ethanol (40% w/v), liver 6 hours after alcohol; for MDA content in the liver: FIG. 3A; for SOD activity in liver: FIG. 3B
male C57BL/6J mice [7] = assay: Blood acetaldehyde concentration after ethanol ingestion (headspace gas chromatography); assay type: in vivo; conditions: FIG. 1B
male C57BL/6J mice [8] = assay: Plasma AST and ALT, acute alcohol-induced hepatotoxicity; assay type: in vivo; conditions: 500 mg/kg intragastric before 8 ml/kg ethanol (40% w/v), blood 6 hours after alcohol, vs model group
male C57BL/6J mice [9] = assay: Liver triglyceride (TG) level, lipid metabolism in acute alcoholic liver damage; assay type: in vivo; conditions: 500 mg/kg pretreatment, alcohol-loaded mice, vs alcohol exposure alone; FIG. 4A
male C57BL/6J mice [10] = assay: Serum very low density lipoprotein (VLDL), lipid metabolism in acute alcoholic liver damage; assay type: in vivo; conditions: 500 mg/kg pretreatment, alcohol-loaded mice, vs alcohol exposure alone; FIG. 4B
C57BL/6J mice = conditions: cited from earlier work
cells = conditions: cited from earlier work

For `O=C1c2c(O)cc(O)cc2O[C@H](c2cc(O)c(O)c(O)c2)[C@H]1O` [DHM, Dihydromyricetin], the ethanol in blood (male C57BL/6J mice [1]) is listed as “significantly reduce”, the blood alcohol levels (mice [2]) is listed as “reduce blood alcohol levels” and the “muscle relaxation induced by alcohol” value (rats) is listed as “prevent muscle relaxation”.
For `N[C@@H](CS)C(=O)O` [L-cysteine], the stress and anxiety ([3]; dose of 600 mg) is listed as “relieved” and the “self-assessed severity of the hangover, nausea and headache” value ([3]; dose of 1200 mg) is listed as “improved”.
For `CCNC(=O)CC[C@H](N)C(=O)O` [L-theanine], the ethanol in blood (male C57BL/6J mice [1]) is listed as “significantly reduce”, the “time to cross the blood-brain barrier” value [4] is listed as ≤ 30 min and the “binding affinity to glutamate receptors” value (glutamate receptors) is listed as “weak”. For the same compound, the “effect with respect to alcoholic liver injury” value (mice [5]) was “protective effect”.
For `CC(=O)N[C@@H](CS)C(=O)O` [NAC, N-acetyl-cysteine], the ethanol in blood (male C57BL/6J mice [1]) was “significantly reduce”, the “MDA content in the liver” value (male C57BL/6J mice [6]) was “significantly reduce” and the “SOD activity in liver” value (male C57BL/6J mice [6]) was “increase”.
In the case of `NC(=O)C1=CN([C@@H]2O[C@H](COP(=O)(O)OP(=O)(O)OC[C@H]3O[C@@H](n4cnc5c(N)ncnc54)C(O)C3O)C(O)C2O)C=CC1` (some centres unmarked) [NADH, nicotinamide adenine dinucleotide (NAD)+hydrogen (H)], the ethanol in blood (male C57BL/6J mice [1]) is reported as “significantly reduce”, the “acetaldehyde in the blood” value (male C57BL/6J mice [7]; after two hours after ethanol administration) is reported as “significantly reduced” and the blood acetaldehyde levels (male C57BL/6J mice [7]; between 30 minutes and two hours after ethanol administration) is reported as “significantly increased”. The “plasma AST level” value (male C57BL/6J mice [8]; FIG. 2A) was “significantly reduce”, the “plasma ALT level” value (male C57BL/6J mice [8]; FIG. 2B) was “significantly reduce” and the “MDA content in the liver” value (male C57BL/6J mice [6]) was “significantly reduce”. For the same compound, the “SOD activity in liver” value (male C57BL/6J mice [6]) was “increase”, the “liver TG level” value (male C57BL/6J mice [9]) was “decreased” and the “serum VLDL level” value (male C57BL/6J mice [10]) was “decreased”. For the same compound, the “liver NAD+/NADH ratio” value (C57BL/6J mice) was “significantly increased”, the “NAD+ content in liver, blood, brain and fat” value (C57BL/6J mice; intraperitoneal injection) was “significantly increased” and the “cell death caused by NAD+-depleting genotoxins” value (cells; NADH-treated cells, e.g. hydrogen peroxide) was “resistant to cell death”. For the same compound, the “NAD+ increase compared to nicotinamide mononucelotide (NMN)” value (cells; at the same concentrations) was “greater NAD+ increases” and the “apoptosis markers in cells” value (cells) was “did not induce apoptosis markers”.
